Laboratory results published in patent publication US8258100B2, “Ligand/lytic peptide methods of use” (Board of Supervisors of Louisiana State University and …, priority 1997, dated 2012).

Key:
[1] = system: sexually mature female rats; test: sexually mature female rats, double intravenous treatment, necropsy two weeks later; assay type: in vivo, rat; settings: IV twice 24 hours apart, two weeks after, GnRH/hecate 2 x 0.5 mg, GnRH 162 μg then 15 minutes later hecate 337 μg
From the text: Eighteen sexually mature, mixed breed, female rats were randomly assigned to one of six groups containing three rats each. Each group of rats received a double treatment intravenously, as described below. Two weeks after the treatment, the rats were sacrificed and necropsied. The reproductive and endocrine organs were sectioned, weighed, and examined histologically.

bovine granulosa cells = test: in vitro lysis of bovine granulosa cells; assay type: cell-based; settings: hecate alone, versus small luteal cells
From the text: We also studied in vitro lysis of bovine granulosa cells with GnRH-hecate conjugate and with hecate-bLH conjugate. Granulosa cells were isolated from bovine pre-ovulatory follicles. (Granulosa cells are hormonally active cells with numerous LH receptors.) Our experiments with granulosa cells were otherwise generally similar to those described above for Examples 24-31.

[2] = system: pituitary basophilic (gonadotropic) cells; test: rat pituitary gland sections in tissue culture, histology after treatment; assay type: cell-based; settings: ten hours after treatment, 37° C.; GnRH 5 ng/mL; hecate 50 μM; GnRH 5 ng/mL 15 minutes, wash, then hecate 50 μM; modified GnRH/hecate 50 μM
Protocol: The pituitary gland of an adult female rat was harvested and divided into six sections of approximately equal size. One section was placed in each of six wells containing tissue culture medium at 37° C. A different treatment was applied to each well, as described below. Ten hours after treatment, the tissue from each well was fixed, and the histology of each was examined microscopically.

DU145 cells = test: in vitro lysis of human prostate cancer cells, Trypan blue exclusion; assay type: cell-based; settings: 22 hours; GnRH-hecate 50 μM; free hecate 30 μM; hecate-bLH 90 or 60 μM
From the text: LNCaP FGC and DU145 human prostate cancer cell lines were purchased from the American Type Culture Collection (ATCC, Rockville Md.), ATCC accession numbers CRL 1740 and HTB-81, respectively. The LNCaP FGC adenocarcinoma cell line was originally obtained from a person. LNCaP FGC cells are sensitive to dihydrotestosterone and to estrogens (A+). The DU145 carcinoma was originally isolated from the brain of a person with metastatic carcinoma of the prostate; this cell line is not sensitive to steroid hormones (A−).
Cells were detached from culture flasks, and 1000 cells/well were transferred to 24 well culture plates. The cells were incubated for 24 hours with 10% calf serum. Cells were subsequently incubated without serum for 48 hours. Cells were then incubated for 22 hours with one of the following treatments:
Trypan blue exclusion was used to assess viability of the cells after treatment. […] However, treatment with a lytic peptide alone may not be selective in vivo unless specific cell types are separately stimulated, for example by hormones controlling their activity.

[3] = system: bovine small luteal cells; test: in vitro lysis of bovine small luteal cells (Trypan Blue exclusion, lactic dehydrogenase release); assay type: cell-based, cattle; settings: 22 hr incubation
Protocol: We studied in vitro lysis of bovine luteal cells with GnRH-hecate conjugate and with hecate-bLH conjugate (SEQ. ID NO. 12). (The bLH component of the conjugate is a 15-mer fragment of the beta chain of luteinizing hormone, SEQ. ID NO. 11). Small luteal cells were collected from cattle corpora lutea post-slaughter.
Small luteal cells in culture were incubated with one of the following treatments for 22 hours, and were then examined for viability using Trypan Blue exclusion and release of lactic dehydrogenase.

In the case of “hecate: amphipathic lytic peptide; synthetic peptide analog of melittin (SEQ. ID NO. 2) (FALALKALKKALKKLKKALKKAL) [reference compound]”, the “ovarian function / histology” value [1] is reported as “normal ovarian function”, the “susceptibility of granulosa cells to killing” value (bovine granulosa cells) is reported as “much more susceptible to killing by hecate alone than were the small luteal cells” and the “histology of pituitary tissue after treatment” value [2] is reported as “appeared normal”. The “killing of cells (viability)” value (DU145 cells) was “killed by hecate alone”, the “cell death of small luteal cells” value ([3]; 1 μM) was “did not differ significantly from negative control” and the “killing of small luteal cells” value ([3]; 5 μM) was “approximately 50%”. The “killing of small luteal cells” value ([3]; 10 μM) was “Significant killing”.
